# Key:
# thrombin production = test: Thrombin generation test; format: biochemical, human
# Procedure: Thrombin generation test, a clinical test to determine if a drug impedes blood clotting, was conducted as described below. […] The results are shown in Table 11, below, and in FIG. 5. The RQN combination decreased thrombin in a manner similar to other commonly used anti-platelet drugs, further indicating the safety of the RQN combination.
# SAPs = test: SAP reduction compared to known anti-platelet drugs; format: cell-based, human
# Procedure: SAPs were analyzed in the presence of resveratrol, quercetin, and naltrexone and compared to known anti-platelet drugs. Student's t-test with Turkey Post Hoc correction was used to determine significance levels comparing untreated to drug treated samples. The appropriate doses for other anti-platelet drugs were established by routine clinical use.
# [1] = tested on: superactivated platelets (SAPs); test: SAP inhibition by combinatorial drug treatment (flow cytometry of PRP); format: cell-based, human; conditions: 50 μM; PRP 30 minutes at 37° C.; normalized relative to Control
# Procedure: A venipuncture sample of 10 mL of blood is obtained from each patient. Of the 10 mL, a 3 mL aliquot of blood is added to a tube containing 0.5 mL of acid-citrate-dextrose solution (38 mM citric acid, 75 mM sodium citrate, 135 mM glucose) to prevent clotting. […] After centrifuging at 1100 rpm for 10 minutes at room temperature, platelet rich plasma (PRP), which is the upper layer, is removed. The PRP is transferred to a new tube, leaving about 0.5 mL above the buffy coat layer. The PRP-containing tube is incubated with 10 μL of thrombin and convulxin, two agonists that activate the platelets, for five minutes. […] APC-SA recognizes superactivated platelets that more readily bind the biotinylated fibrinogen to their surface. […]
# Each sample is analyzed by a Beckman Coulter CyAn flow cytometer (Beckman Coulter, Fullerton, Calif.). Results are analyzed by the Summit program (Beckman Coulter). […] The SAPs are expressed as a percentage of the total number of events in the sample. […]
# Aliquots of platelet rich plasma (PRP) were incubated with aqueous saline solutions of resveratrol only, quercetin only, naltrexone only, and with an admixture of resveratrol, quercetin and naltrexone (RQN) for a time period of 30 minutes at 37° C. […] Multi-color immunofluorescence was noted, and analyzed as described in Example 1, above.
# [2] = tested on: control subject platelets; test: SAP levels at varying doses of R, Q, N alone or in combination, control subject; format: cell-based, human; conditions: control patient
# Procedure: (§1) Resveratrol, quercetin and naltrexone were tested in vitro using 100-microliter assay solutions with (A) a control subject platelets and (B) a POAG subject platelets. A marked reduction in SAPs at 1 μM resveratrol, 1 μM quercetin, 1 μM naltrexone in both the control subject platelets and the POAG patient's platelets was observed, representing a synergistic decrease as compared to the compounds alone.
# POAG subject platelets = test: SAP levels at varying doses of R, Q, N alone or in combination, POAG subject; format: cell-based, human; conditions: POAG patient
# Procedure: as §1
# [3] = cited from earlier work; for Bioavailability: literature reference
molecule,measurement,setting,value
CC(C)Cc1ccc(C(C)C(=O)O)cc1 (stereo not drawn) [Ibuprofen],Thrombin % Decrease,"thrombin production; 100 μM, Alzheimer's (n = 6)",−95.08%
same,Thrombin % Decrease,"thrombin production; 100 μM, Control (n = 6)",−106.45%
same,Thrombin % Decrease,"thrombin production; 100 μM, POAG (n = 6)",−101.37%
same,SAP % Decrease,"SAPs; 100 μM, Alzheimer's (n = 6)",−15.30%
same,SAP % Decrease,"SAPs; 100 μM, Control (n = 6)",−31.40%
same,SAP % Decrease,"SAPs; 100 μM, POAG (n = 6)",−16.84%
"O=C1CC[C@@]2(O)[C@H]3Cc4ccc(O)c5c4[C@@]2(CCN3CC2CC2)[C@H]1O5 [Naltrexone, 17-(cyclopropylmethyl)-4,5α-epoxy-3,14-dihydroxymorphinan-6-one]",% Reduction in SAPs,[1],52.2%
same,% SAPs,[1],47.8%
same,SAP %,[2]; R/Q/N 0/0/1 uM,30.80%
same,SAP % Change,[2]; R/Q/N 0/0/1 uM,−15.13%
same,SAP %,[2]; R/Q/N 0/0/10 uM,20.77%
same,SAP % Change,[2]; R/Q/N 0/0/10 uM,−42.77%
same,SAP %,[2]; R/Q/N 0/0/50 uM,18.03%
same,SAP % Change,[2]; R/Q/N 0/0/50 uM,−50.32%
same,SAP %,POAG subject platelets; R/Q/N 0/0/1 uM,44.27%
same,SAP % Change,POAG subject platelets; R/Q/N 0/0/1 uM,−22.17%
same,SAP %,POAG subject platelets; R/Q/N 0/0/10 uM,40.84%
same,SAP % Change,POAG subject platelets; R/Q/N 0/0/10 uM,−28.20%
same,SAP %,POAG subject platelets; R/Q/N 0/0/50 uM,38.93%
same,SAP % Change,POAG subject platelets; R/Q/N 0/0/50 uM,−31.56%
same,Bioavailability,[3],33%^3
O=C(NC[C@H]1CN(c2ccc(N3CCOCC3=O)cc2)C(=O)O1)c1ccc(Cl)s1 [Rivaroxaban],Thrombin % Decrease,"thrombin production; 1 μM, Alzheimer's (n = 6)",−186.56%
same,Thrombin % Decrease,"thrombin production; 1 μM, Control (n = 6)",−183.06%
same,Thrombin % Decrease,"thrombin production; 1 μM, POAG (n = 6)",−184.65%
same,SAP % Decrease,"SAPs; 1 μM, Alzheimer's (n = 6)",−15.63%
same,SAP % Decrease,"SAPs; 1 μM, Control (n = 6)",−23.38%
same,SAP % Decrease,"SAPs; 1 μM, POAG (n = 6)",−48.73%
Dabigatran,Thrombin % Decrease,"thrombin production; 100 μM, Alzheimer's (n = 6)",−109.55%
same,Thrombin % Decrease,"thrombin production; 100 μM, Control (n = 6)",−101.97%
same,Thrombin % Decrease,"thrombin production; 100 μM, POAG (n = 6)",−100.45%
same,SAP % Decrease,"SAPs; 100 μM, Alzheimer's (n = 6)",−8.09%
same,SAP % Decrease,"SAPs; 100 μM, Control (n = 6)",−0.16%
same,SAP % Decrease,"SAPs; 100 μM, POAG (n = 6)",−11.21%
"Oc1ccc(/C=C/c2cc(O)cc(O)c2)cc1 [Resveratrol, 3,5,4′-trihydroxy-trans-stilbene]",SAP %,[2]; R/Q/N 1/0/0 uM,32.20%
same,SAP % Change,[2]; R/Q/N 1/0/0 uM,−11.27%
same,SAP %,[2]; R/Q/N 5/0/0 uM,30.98%
same,SAP % Change,[2]; R/Q/N 5/0/0 uM,−14.63%
same,SAP %,[2]; R/Q/N 10/0/0 uM,30.24%
same,SAP % Change,[2]; R/Q/N 10/0/0 uM,−16.67%
same,SAP %,POAG subject platelets; R/Q/N 1/0/0 uM,53.30%
same,SAP % Change,POAG subject platelets; R/Q/N 1/0/0 uM,−6.29%
same,SAP %,POAG subject platelets; R/Q/N 5/0/0 uM,53.78%
same,SAP % Change,POAG subject platelets; R/Q/N 5/0/0 uM,−5.45%
same,SAP %,POAG subject platelets; R/Q/N 10/0/0 uM,43.53%
same,SAP % Change,POAG subject platelets; R/Q/N 10/0/0 uM,−23.47%
same,Half-life,[3]; in vivo,1 to 3 h
same,Bioavailability,[3],5%^1
"O=c1c(O)c(-c2ccc(O)c(O)c2)oc2cc(O)cc(O)c12 [Quercetin, 3,3′,4′5,7-pentahydroxy-2-phenylchromen-4-one]",SAP %,[2]; R/Q/N 0/1/0 uM,30.36%
same,SAP % Change,[2]; R/Q/N 0/1/0 uM,−16.34%
same,SAP %,[2]; R/Q/N 0/5/0 uM,30.53%
same,SAP % Change,[2]; R/Q/N 0/5/0 uM,−15.87%
same,SAP %,[2]; R/Q/N 0/10/0 uM,21.47%
same,SAP % Change,[2]; R/Q/N 0/10/0 uM,−40.84%
same,SAP %,POAG subject platelets; R/Q/N 0/1/0 uM,49.18%
same,SAP % Change,POAG subject platelets; R/Q/N 0/1/0 uM,−13.54%
same,SAP %,POAG subject platelets; R/Q/N 0/5/0 uM,48.25%
same,SAP % Change,POAG subject platelets; R/Q/N 0/5/0 uM,−15.17%
same,SAP %,POAG subject platelets; R/Q/N 0/10/0 uM,43.27%
same,SAP % Change,POAG subject platelets; R/Q/N 0/10/0 uM,−23.93%
same,Bioavailability,[3],11%^2
CC(=O)Oc1ccccc1C(=O)O [Aspirin],Thrombin % Decrease,"thrombin production; 100 μM, Alzheimer's (n = 6)",−75.46%
same,Thrombin % Decrease,"thrombin production; 100 μM, Control (n = 6)",−76.05%
same,Thrombin % Decrease,"thrombin production; 100 μM, POAG (n = 6)",−104.39%
same,SAP % Decrease,"SAPs; 100 μM, Alzheimer's (n = 6)",−17.32%
same,SAP % Decrease,"SAPs; 100 μM, Control (n = 6)",−17.00%
same,SAP % Decrease,"SAPs; 100 μM, POAG (n = 6)",−26.69%
